Results reported in patent publication US9382215B2, “Therapeutic methods and agents for treating myotonic dystrophy” (The Board of Trustees of the University of Illinois, priority 2012, dated 2016).

What was measured:
[1] = target: T1, MBNL1-CUG interaction (Homo sapiens, UniProt Q9NR56); assay: Electrophoretic mobility shift assay (EMSA) of inhibition of MBNL1-CUG interaction; type: biochemical
T1 construct: An expression vector for MBNL1N (1-272 aminoacids) was obtained from Maurice S. Swanson; hexahis; made in house
T1 sequence (Q9NR56 1-272): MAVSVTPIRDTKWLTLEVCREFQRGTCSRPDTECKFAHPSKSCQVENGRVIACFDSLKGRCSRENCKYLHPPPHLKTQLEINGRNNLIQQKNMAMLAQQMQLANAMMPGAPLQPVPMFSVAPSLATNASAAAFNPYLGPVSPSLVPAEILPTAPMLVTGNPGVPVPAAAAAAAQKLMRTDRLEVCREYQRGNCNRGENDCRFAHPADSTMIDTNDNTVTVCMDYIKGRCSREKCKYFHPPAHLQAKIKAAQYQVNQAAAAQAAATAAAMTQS
Method: (§1) RNA was labeled with [γ-^32P]ATP using T4 polynucleotide kinase (New England Biolabs). Labeled RNA (5 μL, 0.5 nM) was heated at 95° C. for 2 min and then placed on ice for 10 min and diluted to 125 μL in RNA storage buffer (66 mM NaCl, 6.7 mM MgCl2, and 27 mM Tris.HCl (pH 7.5). If required for the experiment, tRNA was added to the RNA solution to give a final concentration of approximately 8 μM. The protein (MBNL1N) was serially diluted in binding buffer (175 mM NaCl, 5 mM MgCl2, 20 mM Tris.HCl (pH 7.5), 1.25 mM BME, 12.5% glycerol, 2 mg/mL BSA, and 0.1 mg/mL heparin), and 5 μL of protein solution was added to 5 μL of RNA solution (Warf and Berglund, RNA, 2007, 13, 2238-2251). The reaction mixture was incubated at room temperature for 25 min and loaded onto a 6% polyacrylamide gel (80:1) at 4° C. The gels were run for 1 hour at 360V in 22.5 mM Tris-borate buffer (pH 8). Gels were visualized on a Molecular Dynamics Storm phosphorimager. The apparent Kd values were obtained by fitting fraction RNA bound versus protein concentration using the following equation: fraction bound=1/(1+(Kd/[P]T)). All binding measurements were performed with a greater than 10-fold excess of protein over RNA in each binding reaction used to determine the Kd so that [P] would be approximately equal to [P]total.
The inhibition of the MBNL1N-RNA complex was investigated using the above procedure except that the small molecule was added to the RNA-protein complex after 25 min of incubation. The reaction mixture was incubated for an additional 10-15 minutes at room temperature (˜23° C.). The inhibition assays were performed in the presence of 10% DMSO. To determine IC50 values, the free RNA versus small molecule concentration was fit to the equation: B=ΔB exp((−0.69/IC50)C)+Bf. B is the volume of the free RNA band in the gel, ΔB is the difference between the volumes of the free RNA bands at the lowest and highest concentrations of small molecule (Bi−Bf), C is the concentration of the small molecule, and IC50 is the concentration of small molecule at which B=(½ΔB)+Bf. […]

[2] = target: T2, MBNL1N-(CUG)4 RNA (Homo sapiens, UniProt Q9NR56); assay: Inhibition of MBNL1N binding to (CUG)4 RNA in the presence of competitor tRNA; type: biochemical
T2 construct: An expression vector for MBNL1N (1-272 aminoacids) was obtained from Maurice S. Swanson; hexahis; made in house
T2 sequence (Q9NR56 1-272): T1 sequence (Q9NR56 1-272)
Method: as §1, with “[P]total. […]” for “[P]total.”

[3] = target: T3, MBNL1N-(CUG)12 RNA (Homo sapiens, UniProt Q9NR56); assay: Inhibition of MBNL1N binding to (CUG)12 RNA in the presence of competitor tRNA; type: biochemical
T3 construct: An expression vector for MBNL1N (1-272 aminoacids) was obtained from Maurice S. Swanson; hexahis; made in house
T3 sequence (Q9NR56 1-272): T1 sequence (Q9NR56 1-272)
Method: as §1, with “[P]total. […]” for “[P]total.”

[4] = target: CTG repeats; assay: Binding to CTG repeats
Method: (§2) Isothermal titration calorimetry measurements were performed at 25° C. on a MicroCal VP-ITC (MicroCal, Inc., Northampton, Mass.). A standard experiment consisted of titrating 10 μL of a 500 μM ligand from a 250 μL syringe (rotating at 300 rpm) into a sample cell containing 1.42 mL of a 20 μM DNA/RNA solution. The duration of the injection was set to 24 s, and the delay between injections was 300 s. The initial delay prior to the first injection was 60 s. To derive the heat associated with each injection, the area under each isotherm (microcalories per second versus seconds) was determined by integration by the graphing program Origin 5.0 (MicroCal, Inc. Northampton, Mass.). […] In many cases, additional sites are not detected by Job plot analysis and likely represent low-affinity sites. […]
(§3) A cell sample (250 μL) of 0.2 μM a compound of interest (in 20 mM MOPS pH 7.0, 300 mM NaCl) was excited at 310 nm (excitation slit of 4 nm) and emission recorded between 470-530 nm (emission slit of 8 nm) monitoring the maximum at 495 nm. […] The sample was then allowed to equilibrate for 15 min and the fluorescence emission recorded. The decrease in fluorescence with increased DNA/RNA was monitored until the binding sites became saturated and the fluorescence change was no longer evident. […]

[5] = target: CUG repeats; assay: Binding to CUG repeats
Method: as §2, §3

[6] = Water solubility; type: physicochemical
[7] = test system: 3T3 mouse fibroblast; assay: Toxicity / cell viability in 3T3 mouse fibroblasts; type: cell-based
[8] = test system: MBNL1-CUG foci; assay: Confocal microscopy of MBNL1-CUG foci in HeLa cells transfected with GFP-MBNL1 and DMPK (CUG)960; type: cell-based; details: HeLa cells containing (CUG)960, confocal microscopy, preliminary results
Source text: In various embodiments, the compounds described herein can form MBNL1-CUG foci inside the nucleus for cells containing expanded CUG repeats.

[9] = Tolerability in mice, intraperitoneal injection; type: in vivo; details: mouse, in vivo, ip, mice, 5-100 mg/kg tested, read-out: maximum tolerated dose
Method: (§4) The compounds are found to be non-toxic among different cell types tested, including DM1 patient cells and 3T3 mouse fibroblasts. In one experiment, three mice each were evaluated at 5, 10, 20 50, and 100 mg/kg of compound 1, given by intraperitoneal injection.

[10] = test system: mice; assay: Tolerability in mice, intraperitoneal injection; type: in vivo; details: 100 mg/kg
Method: as §4

SMILES: N=C(NCCCCNc1nc(N)nc(N)n1)c1ccc(C(=N)NCCCCNc2nc(N)nc(N)n2)cc1 [Compound 1, N^1,N^4-bis(4-((4,6-diamino-1,3,5-triazin-2-yl)amino)butyl)terephthalimidamide]
- IC50 ([1]; EMSA): 11 µM
- Ki ([1]; EMSA, read-out: inhibition constant (Ki) for MBNL1-CUG interaction): 0.177 µM
- inhibitory ability in EMSA screen compared to other inhibitor compounds (such as compound 5) ([1]; same concentration (100 μM)): significantly improved inhibitory ability
- Ki for inhibition of MBNL1N binding to (CUG)4 RNA [2]: low micromolar
- Ki for inhibition of MBNL1N binding to (CUG)12 RNA [3]: low micromolar
- affinity for CTG repeats [4]: high nanomolar affinity
- affinity for CUG repeats [5]: high nanomolar affinity
- water solubility [6]: improved water solubility
- toxicity towards mouse fibroblasts [7]: non-toxic
- cell viability ([7]; 100 μM, 3-day incubation): 100%
- disruption of MBNL1-CUG foci in the nucleus [8]: significant disruption of foci
- MTD [9]: 50 mg/kg
- mice exhibiting neurotoxicity [10]: two of three
